One block for each compound: values may come before it.
Assays:
[1] = test system: thermostable DNA polymerase; settings: Latham et al., Nucleic Acids Res. 1994; cited from earlier work
[2] = test system: thermostable DNA polymerases (Taq, Vent, Pfu, rTh); test: PCR assays with modified dUTP in place of dTTP, panel of thermostable DNA polymerases; assay type: biochemical; settings: for substrate for thermostable DNA polymerases in PCR: typical PCR conditions, analog in place of dTTP, all polymerases tested (Taq, Vent, Pfu, rTh), 519 base pair product; for incorporation of modified base in PCR under varied conditions: variation of Mg+2 (15 to 30 mM) and analog concentrations
From the text: (§1) Commercially available thermostable DNA polymerases from […] organisms were studied; Taq from Thermus aquaticus, Vent from Thermococcus litoralis, Pfu from Pyrococcus furiosus, and rTh from Thermus thermophilus. […] Homogeneous incorporation of these derivatives in PCR is not possible due to chain termination, see 11c for discussion of derivatives in PCR: a) M. Shimkus, J. Levy, T. Herman, Proc. Natl. Acad. Sci. U.S.A. 1985, 82, 2593-7; b) B. L. Iverson, P. B. Dervan, J Am. Chem. Soc. 1987, 109, 1241-3. and ref. 10; c) H. Yu, J. Chao, D. Patek, R. Mujumdar, A. S. Waggoner, Nucleic Acids Res. 1994, 22, 3226-32. Successful PCR with this template requires incorporation of 246 modified bases including a single stretch of 8 contiguous thymidines.
(§2) Compound 3 was derivatized with three different N-hydroxysuccinimide esters to prepare Compounds 4a-c (Scheme 2 FIG. 3). […] To test this structure-activity relationship, 4e-4g maintaining the a,b-unsaturated linker arm common to 4a, were also prepared (Scheme 2, FIG. 3). […] Compound 4g, with a free amino group, was used as a template for the synthesis of Compounds 4h and 4i.

rTh polymerase = molecular target: T1, rTh polymerase (Thermus thermophilus, UniProt P52028); test: PCR assay with modified dUTP in place of dTTP, rTh polymerase; assay type: biochemical; settings: analog in place of dTTP, 519 base pair product
T1 construct: purchased
From the text: as §1, §2

[3] = molecular target: T2, Superscript II reverse transcriptase (Moloney murine leukemia virus, UniProt P03355, D1183G/D1242N/E1221Q); test: Reverse transcriptase template-directed extension assay; assay type: biochemical; settings: 0.4 mM analog; 0.2 mM dATP, dCTP, dGTP; 37 C
T2 construct: Superscript II reverse transcriptase; purchased Gibco/BRL
Experimental: Reverse transcriptases may also be utilized in conjunction with PCR in in vitro selection schemes of DNA enzymes. […] The specificity of this reverse transcriptase is broader and not predictive of the structural requirements of the thermostable polymerases.
Reverse transcriptase assays: Template-directed extension was performed by addition of 10 pmol template DNA 5'-GCTAAAAAAGCTGCTAAAAAGCTGCTAAAAGCTGCTAAAGCTAAGCTAGCTCCCTTTAGTGAGGGTTAATTGC-3' (SEQ ID NO. 1) to 10 pmol primer DNA 5'-GCAATTAACCCTCACTAAAGGG-3' (SEQ ID NO 2) followed by Superscript II reverse transcriptase (Gibco, 200 units.(1^-1). The reaction (25 (I) contained 0.2 mM of dATP, dCTP, dGTP and 0.4 mM analog. Trace quantities of ((-^32 P(-dATP was included to allow the extension efficiency to be monitored. All components except reverse transcriptase were combined, incubated at 90° C. and cooled to 37° C. to anneal the primer. The enzyme (600 units) was added and the reaction mixture was incubated at 37 (C. The DNA was precipitated in ethanol and then dissolved in gel-loading buffer containing urea and heated for 3 min at 90° C. After separation on a 10% denaturing acrylarnide gel, the samples were further analyzed with a Phosphorimager.

T1 sequence (P52028 whole entry): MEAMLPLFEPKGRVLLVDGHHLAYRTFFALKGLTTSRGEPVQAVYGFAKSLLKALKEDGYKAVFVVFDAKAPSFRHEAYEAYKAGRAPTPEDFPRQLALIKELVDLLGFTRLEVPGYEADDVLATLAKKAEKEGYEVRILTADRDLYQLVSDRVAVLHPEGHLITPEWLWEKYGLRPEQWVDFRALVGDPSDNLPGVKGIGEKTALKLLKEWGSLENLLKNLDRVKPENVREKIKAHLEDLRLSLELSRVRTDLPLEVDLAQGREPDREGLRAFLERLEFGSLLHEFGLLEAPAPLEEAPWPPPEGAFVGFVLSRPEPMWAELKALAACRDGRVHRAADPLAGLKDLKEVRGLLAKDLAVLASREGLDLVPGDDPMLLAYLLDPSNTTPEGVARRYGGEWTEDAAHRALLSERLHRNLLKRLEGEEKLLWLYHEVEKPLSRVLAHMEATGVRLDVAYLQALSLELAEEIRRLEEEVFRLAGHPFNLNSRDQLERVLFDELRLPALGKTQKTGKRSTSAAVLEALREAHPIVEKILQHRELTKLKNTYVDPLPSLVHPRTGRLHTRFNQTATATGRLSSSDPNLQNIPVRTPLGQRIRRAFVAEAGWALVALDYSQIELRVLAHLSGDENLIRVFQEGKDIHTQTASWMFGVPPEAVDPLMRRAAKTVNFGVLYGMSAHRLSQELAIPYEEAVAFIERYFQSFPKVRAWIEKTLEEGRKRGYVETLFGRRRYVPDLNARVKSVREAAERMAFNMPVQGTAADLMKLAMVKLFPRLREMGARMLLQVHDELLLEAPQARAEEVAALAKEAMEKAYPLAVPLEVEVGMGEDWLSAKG

Compound: CCCC#Cc1cn([C@H]2C[C@H](O)[C@@H](COP(=O)(O)OP(=O)(O)OP(=O)(O)O)O2)c(=O)[nH]c1=O [5-(1-pentynyl)-2' deoxyuridine triphosphate]
substrate for a thermostable DNA polymerase [1]: good substrate

Compound: NCC=Cc1cn([C@H]2C[C@H](O)[C@@H](COP(=O)(O)OP(=O)(O)OP(=O)(O)O)O2)c(=O)[nH]c1=O [Compound 3, C-5(3-aminopropenyl)-2'-deoxvuridinetriphosphate]
criteria for in vitro selection: substrate for thermostable polymerases and product serves as template for multiple cycles of PCR amplification [2]: criteria were met
substrate for thermostable DNA polymerases in PCR [2]: acted as a substrate
incorporation / substrate in PCR with rTh polymerase (only polymerase of the panel that accepts it) (rTh polymerase): incorporation into the 519 base pair product only with rTh polymerase

Compound: O=C(/C=C/c1c[nH]cn1)NCC=Cc1cn([C@H]2C[C@H](O)[C@@H](COP(=O)(O)OP(=O)(O)OP(=O)(O)O)O2)c(=O)[nH]c1=O [Compound 4a]
criteria for in vitro selection: substrate for thermostable polymerases and product serves as template for multiple cycles of PCR amplification [2]: criteria were met
substrate for thermostable DNA polymerases in PCR [2]: excellent substrate for all the polymerases tested

Compound: O=C(O)c1ccc(C(=O)NC/C=C/c2cn([C@H]3C[C@H](O)[C@@H](COP(=O)(O)OP(=O)(O)OP(=O)(O)O)O3)c(=O)[nH]c2=O)cc1 [Compound 4b]
incorporation of modified base in PCR under varied conditions [2]: failed to define conditions that allowed for incorporation

Compound: O=C(O)c1ccccc1-c1ccccc1C(=O)NCC=Cc1cn([C@H]2C[C@H](O)[C@@H](COP(=O)(O)OP(=O)(O)OP(=O)(O)O)O2)c(=O)[nH]c1=O [Compound 4c]
incorporation of modified base in PCR under varied conditions [2]: failed to define conditions that allowed for incorporation
substrate of Superscript II reverse transcriptase in template directed synthesis [3]: all but 4c and 4h were substrates

Compound: O=C(CCc1c[nH]cn1)NC/C=C/c1cn([C@H]2C[C@H](O)[C@@H](COP(=O)(O)OP(=O)(O)OP(=O)(O)O)O2)c(=O)[nH]c1=O [Compound 4d]
substrate for thermostable DNA polymerases in PCR [2]: No conditions could be defined with any of the polymerases that allowed for PCR

Compound: NCc1cccc(/C=C/C(=O)NC/C=C/c2cn([C@H]3C[C@H](O)[C@@H](COP(=O)(O)OP(=O)(O)OP(=O)(O)O)O3)c(=O)[nH]c2=O)c1 [Compound 4g]
substrate for thermostable DNA polymerases in PCR [2]: robust substrate for PCR as compared to 3

Compound: O=C(O)CCCC(=O)NCc1cccc(/C=C/C(=O)NC/C=C/c2cn([C@H]3C[C@H](O)[C@@H](COP(=O)(O)OP(=O)(O)OP(=O)(O)O)O3)c(=O)[nH]c2=O)c1 [Compound 4h]
substrate for thermostable DNA polymerases in PCR [2]: good substrate for all thermostable polymerases tested
substrate of Superscript II reverse transcriptase in template directed synthesis [3]: all but 4c and 4h were substrates

incorporation / substrate in PCR with rTh polymerase (only polymerase of the panel that accepts it) (rTh polymerase): substrate only for rTh polymerase
Compound: CC(=O)N[C@@H](Cc1c[nH]cn1)C(=O)NCc1cccc(/C=C/C(=O)NC/C=C/c2cn([C@H]3C[C@H](O)[C@@H](COP(=O)(O)OP(=O)(O)OP(=O)(O)O)O3)c(=O)[nH]c2=O)c1 [Compound 4i]

Reference: US6175001A, “Functionalized pyrimidine nucleosides and nucleotides and DNA's incorporating same” (The Scripps Research Institute, priority 1998, dated 2001)
